The results in this text go back to patent US20060166866A1, “Cell adhesion inhibitors” (Biogen, Inc., a Massachusetts corporation, priority 1995, published 2006).

Molecules are shown by their SMILES. Some results are limits rather than exact numbers.

In the experiment the target is T1, VLA4 (Homo sapiens, UniProt P05556+P13612).
T1 construct: endogenous in cells; host or cells: Ramos cells
T1 sequence (P13612 34-1032): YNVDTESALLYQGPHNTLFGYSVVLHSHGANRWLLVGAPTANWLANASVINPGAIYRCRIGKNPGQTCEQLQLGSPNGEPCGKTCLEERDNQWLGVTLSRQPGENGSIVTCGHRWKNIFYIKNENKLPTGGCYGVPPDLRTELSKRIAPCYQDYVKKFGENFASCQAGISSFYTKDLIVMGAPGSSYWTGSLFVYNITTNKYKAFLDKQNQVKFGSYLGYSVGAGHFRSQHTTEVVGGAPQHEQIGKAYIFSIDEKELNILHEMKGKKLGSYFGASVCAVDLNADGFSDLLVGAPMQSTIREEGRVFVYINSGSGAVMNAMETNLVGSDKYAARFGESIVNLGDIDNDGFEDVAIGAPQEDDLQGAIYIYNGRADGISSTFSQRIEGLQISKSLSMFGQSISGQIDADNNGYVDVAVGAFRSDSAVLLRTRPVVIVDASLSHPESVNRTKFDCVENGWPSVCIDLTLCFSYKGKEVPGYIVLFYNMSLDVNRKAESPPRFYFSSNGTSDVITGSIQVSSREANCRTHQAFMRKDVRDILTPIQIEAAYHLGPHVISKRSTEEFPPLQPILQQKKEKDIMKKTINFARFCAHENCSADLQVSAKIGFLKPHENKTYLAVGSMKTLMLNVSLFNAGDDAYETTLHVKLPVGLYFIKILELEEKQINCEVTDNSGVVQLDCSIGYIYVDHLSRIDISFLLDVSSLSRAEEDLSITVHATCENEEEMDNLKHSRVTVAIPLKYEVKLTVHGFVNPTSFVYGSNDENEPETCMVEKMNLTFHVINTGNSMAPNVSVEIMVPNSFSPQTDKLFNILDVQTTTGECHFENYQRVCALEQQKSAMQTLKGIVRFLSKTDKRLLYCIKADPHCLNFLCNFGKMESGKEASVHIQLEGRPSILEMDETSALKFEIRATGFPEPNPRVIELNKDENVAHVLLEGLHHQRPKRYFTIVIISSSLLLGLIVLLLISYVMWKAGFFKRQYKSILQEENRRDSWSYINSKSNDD
T1 sequence (P05556 21-798): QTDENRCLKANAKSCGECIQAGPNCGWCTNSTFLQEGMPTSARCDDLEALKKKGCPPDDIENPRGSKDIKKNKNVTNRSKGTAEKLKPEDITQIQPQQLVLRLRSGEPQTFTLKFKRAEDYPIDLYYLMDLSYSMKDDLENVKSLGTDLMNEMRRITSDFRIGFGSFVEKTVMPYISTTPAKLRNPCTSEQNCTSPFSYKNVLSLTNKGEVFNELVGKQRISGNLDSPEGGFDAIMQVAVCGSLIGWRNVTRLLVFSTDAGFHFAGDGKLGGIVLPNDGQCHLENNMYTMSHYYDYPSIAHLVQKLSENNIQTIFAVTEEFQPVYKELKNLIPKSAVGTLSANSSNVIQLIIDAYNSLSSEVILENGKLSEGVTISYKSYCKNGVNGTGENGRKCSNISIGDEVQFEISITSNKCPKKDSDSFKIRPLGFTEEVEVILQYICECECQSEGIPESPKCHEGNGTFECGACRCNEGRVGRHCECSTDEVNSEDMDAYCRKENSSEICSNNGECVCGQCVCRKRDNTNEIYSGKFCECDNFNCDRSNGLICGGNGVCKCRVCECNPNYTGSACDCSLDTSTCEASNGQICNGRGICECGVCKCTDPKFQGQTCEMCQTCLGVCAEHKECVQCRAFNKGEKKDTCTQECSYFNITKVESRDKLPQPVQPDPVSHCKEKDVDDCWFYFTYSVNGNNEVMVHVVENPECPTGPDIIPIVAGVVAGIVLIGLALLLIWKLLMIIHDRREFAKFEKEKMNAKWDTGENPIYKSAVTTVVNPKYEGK
The experiment can be described thus: Inhibition of VLA4-dependent adhesion to BSA-CS1 (fluorescently labelled Ramos cells). The experiment is classed as cell-based. Conditions: binding of BCECF-labelled Ramos cells to CS1 peptide-coated wells, 2 mM MnCl2, 30 minutes at room temperature. An excerpt: For example, the cell adhesion inhibitory activity of these compounds may be measured by determining the concentration of inhibitor required to block the binding of VLA-4-expressing cells to fibronectin- or CS1-coated plates. In this assay microtiter wells are coated with either fibronectin (containing the CS-1 sequence) or CS-1. If CS-1 is used, it must be conjugated to a carrier protein, such as bovine serum albumin, in order to bind to the wells. Once the wells are coated, varying concentrations of the test compound are then added together with appropriately labelled, VLA-4-expressing cells. Alternatively, the test compound may be added first and allowed to incubate with the coated wells prior to the addition of the cells. The cells are allowed to incubate in the wells format least 30 minutes. Following incubation, the wells are emptied and washed. Inhibition of binding is measured by quantitating the fluorescence or radioactivity bound to the plate for each of the various concentrations of test compound, as well as for controls containing no test compound.
VLA-4-expressing cells that may be utilized in this assay include Ramos cells, Jurkat cells, A375 melanoma cells, as well as human peripheral blood lymophocytes (PBLs). The cells used in this assay may be fluorescently or radioactively labelled.
This assay was used to assess the potency of VLA4-directed inhibitory compounds of this invention.
1. Conjugation of CS1 to BSA
We dissolved BSA-SMCC (Pierce Chemical, Rockford, Ill.; Catalog,# 77115) in H2O at a concentration of 10 mg/mL. [SEQ ID NO:4]:Cys-Tyr-Asp-Glu-Leu-Pro-Gln-Leu-Val-Thr-Leu-Pro-His-Pro-Asn-Leu-His-GIy-Pro-Glu-Ile-Leu-Asp-Val-Pro-Ser-Thr (“Cys-Tyr-CS1 peptide”), which we synthesized by conventional solid phase chemistry and purified by HPLC, was dissolved in 10 mM HEPES pH 5, 50 mM NaCl and 0.1 mM EDTA also at a concentration of 10 mg/mL. We then mixed 500 μL of BSA-SMCC, 250 μL of Cys-Tyr-CS1 peptide and 75 μL of […] and allowed the conjugation reaction to proceed for 30 minutes. We stopped the reaction by adding 1 μL of beta-mercaptoethanol. Samples were analyzed for cross-linking by SDS-PAGE. This reaction produced multiple molecules of the Cys-Tyr-CS1 peptide conjugate to each BSA molecule.
2. Preparation of Plates for Adhesion Assay
We coated the wells of a Linbro titertek polystyrene 96-well flat bottom plate (Flow Laboratories, Maclean, Va.; catalog #76-231-05) with 100 μL of the above-described BSA-CS1 solution diluted to 1 μg/mL in 0.05 M NaHCO3 (15 mM NaHCO3, 35 mM Na2CO3) pH 9.2. Some wells were not coated with CS1 in order to assess non-specific cell binding (NSB). The plate was then incubated overnight at 4° C.
Following this incubation, the contents of the wells were removed by inverting and blotting the plate. All of the wells were then blocked with 100 μL of 1% BSA in PBS, 0.02% NaN3, for a minimum of one hour at room temperature.
3. Preparation of Fluorescently Labelled Ramos Cells
Ramos cells are grown, maintained and labelled in RPMI 1640 culture medium containing 1% BSA. Just prior to running the assay, we added 2′,7′-bis-(2-carboxyethyl)-5 (and -6) carboxyfluorescein acetoxymethyl ester (“BCECF-AM”; Molecular Probes Inc., Eugene, Oreg.; catalog #B-1150) to a final concnetration of 2 μM to a culture of Ramos cells (4×10^6 cells/mL). We incubated the cells for 20 minutes at 37° C.
Following labelling, the cells were washed twice in assay buffer (24 mM TRIS, 137 mM NaCl, 2.7 mM KCl, pH 7.4, containing 0.1% BSA and 2 mM glucose) to remove any cations originating from the culture medium. The cells were then resuspended in assay buffer to 4×10^6 cells/mL and 2 mM MnCl2 was added to upregulate VLA4 on the surface of the cells.
Immediately prior to running the assay, we removed the BSA blocking solution from the 96-well plates and washed the wells with 100 μL of assay buffer. We then added to each well 25 μL of test compound at 2× the final concentration and 25 μL of the labelled Ramos cells. […]
In the case of `CC(C)CC(NC(=O)Cc1ccc(NC(=O)Nc2ccccc2)cc1)C(=O)NC(CC(=O)O)c1ccc(F)c(F)c1` (stereo not shown) [BIO-1195], the half-inhibitory concentration (IC50) is < 50 nM. Regarding `COc1ccc(C(CC(=O)O)NC(=O)C(CCSC)NC(=O)Cc2ccc(NC(=O)Nc3ccccn3)cc2)cc1OC` (stereo not shown) [BIO-1347], the IC50 is < 50 nM. Compound `CC(C)CC(NC(=O)Cc1ccc(NC(=O)c2c[nH]c3ccccc23)cc1)C(=O)NC(CC(=O)O)c1ccc2c(c1)OCO2` (stereo not shown) [BIO-1655] yielded an IC50 of 50 to 10000 nM.

On to `COC(=O)c1ccc(C(CC(=O)O)NC(=O)C(CC(C)C)NC(=O)Cc2ccc(NC(=O)Nc3ccccc3)cc2)cc1` (stereo not shown) [BIO-1388], for which the half-inhibitory concentration (IC50) is < 50 nM. The same measure for `CC(C)CC(NC(=O)Cc1ccc(NC(=O)n2ccc3ccccc32)cc1)C(=O)NC(CC(=O)O)c1ccc2c(c1)OCO2` (stereo not shown) [BIO-1327]: 50 to 10000 nM.

Take `COc1ccc(C(CC(=O)O)NC(=O)C(CC(C)C)NC(=O)Cc2ccc(NC(=O)Nc3ccccn3)cc2)cc1` (stereo not shown) [BIO-1194]: the 50% inhibitory concentration (IC50) was < 50 nM. Regarding `Cc1ccccc1NC(=O)Nc1ccc(CC(=O)NC(CC(C)C)C(=O)NC(CCc2ccccc2)CC(=O)O)cc1` (stereo not shown) [BIO-1400], the half-maximal inhibitory concentration (IC50) is < 50 nM. Take `COC(=O)NCCCCC(NC(=O)Cc1ccc(NC(=O)Nc2ncccc2C)cc1)C(=O)NC(CC(=O)O)c1ccc(OC)c(OC)c1` (stereo not shown) [BIO-1311]: the IC50 was in the range of 50 to 10000 nM. With `COC(=O)NCCCCC(NC(=O)Cc1ccc(NC(=O)Nc2ccccc2C)cc1)C(=O)NC(CC(=O)O)c1ccc2c(c1)OCO2` (stereo not shown) [BIO-1272], the half-maximal inhibitory concentration (IC50) is < 50 nM. Take `CC(C)CC(NC(=O)Cc1ccc(NC(=O)NC(C)(C)C)cc1)C(=O)NC(CC(=O)O)c1ccc2c(c1)OCO2` (stereo not shown) [BIO-1076]: the IC50 was 50 to 10000 nM. In the case of `CC(C)CNC(=O)C(CC(=O)O)NC(=O)C(CC(C)C)NC(=O)Cc1ccc(NC(=O)Nc2ccccc2)cc1` (stereo not shown) [BIO-1186], the 50% inhibitory concentration (IC50) was in the range of 50 to 10000 nM. For the compound `COc1ccc(C(CC(=O)O)NC(=O)C(CC(C)C)NC(=O)Cc2ccc(NC(=O)Nc3ccccc3F)cc2)cc1OC` (stereo not shown) [BIO-1525], the IC50 fell in the range of 50 to 10000 nM. With `Cc1ccccc1NC(=O)Nc1ccc(CC(=O)NC(CC(C)C)C(=O)NC(CC(=O)O)c2ccccc2)cc1` (stereo not shown) [BIO-1197], the 50% inhibitory concentration (IC50) was < 50 nM. For `C#CC(CC(=O)O)NC(=O)C(CC(C)C)NC(=O)Cc1ccc(NC(=O)Nc2ccccc2C)cc1` (stereo not shown) [BIO-1490], the IC50 is < 50 nM. As to `CC(C)CC(NC(=O)CC(c1ccccc1)c1ccccc1)C(=O)NC(CC(=O)O)c1ccccc1` (stereo not shown) [BIO-1099], the IC50 is > 10000 nM. Regarding `Cc1ccccc1NC(=O)Nc1ccc(CC(=O)NC(CC(C)C)C(=O)NCCC(=O)O)cc1` (stereo not shown) [BIO-1594], the 50% inhibitory concentration (IC50) lay in the range of 50 to 10000 nM. The same measure for `Cc1ccccc1NC(=O)Nc1ccc(CC(=O)NC(CC(C)C)C(=O)NC(C)CC(=O)O)cc1` (stereo not shown) [BIO-1536]: < 50 nM; for `COc1ccc(C(CC(=O)O)NC(=O)C(CC(C)C)NC(=O)Cc2ccc(NC(=O)Nc3ccccc3C)cc2)cc1OC` (stereo not shown) [BIO-1212]: < 50 nM; for `CC(C)CC(NC(=O)Cc1ccc(NC(=O)c2ccc[nH]2)cc1)C(=O)NC(CC(=O)O)c1ccc2c(c1)OCO2` (stereo not shown) [BIO-1474]: 50 to 10000 nM. On to `Cc1ccccc1NC(=O)Nc1ccc(CC(=O)NC(CSCCCO)C(=O)NC(CC(=O)O)c2ccc3c(c2)OCO3)cc1` (stereo not shown) [BIO-1246], for which the IC50 is < 50 nM. Compound `C=CCNC(=O)Nc1ccc(CC(=O)NC(CC(C)C)C(=O)NC(CC(=O)O)c2ccc3c(c2)OCO3)cc1` (stereo not shown) [BIO-1475] displayed an IC50 of 50 to 10000 nM. Take `COc1cccc(C(CC(=O)O)NC(=O)C(CC(C)C)NC(=O)Cc2ccccc2)c1` (stereo not shown) [BIO-1160]: the IC50 lay within 50 to 10000 nM. For the compound `CC(C)CC(NC(=O)Cc1ccc(NC(=S)Nc2ccccc2)cc1)C(=O)NC(CC(=O)O)c1ccc2c(c1)OCO2` (stereo not shown) [BIO-1358], the 50% inhibitory concentration (IC50) lay in the range of 50 to 10000 nM. The same measure for `CSCCC(NC(=O)Cc1ccc(NC(=O)Nc2ccccn2)cc1)C(=O)NC(CC(=O)O)c1ccc2c(c1)OCO2` (stereo not shown) [BIO-1393]: < 50 nM. Compound `CC(C)CC(NC(=O)Cc1ccc(NC(=O)Nc2ccccc2)cc1)C(=O)NC(CC(=O)O)c1ccc2c(c1)OCO2` (stereo not shown) [BIO-1128] registered an IC50 of 50 to 10000 nM. For the compound `CC(C)CC(NC(=O)Nc1ccc([N+](=O)[O-])cc1)C(=O)NC(CC(=O)O)c1ccccc1` (stereo not shown) [BIO-1108], the 50% inhibitory concentration (IC50) was > 10000 nM. `Cc1ccccc1NC(=O)Nc1ccc(CC(=O)NC(CC(C)C)C(=O)NC(CC(=O)O)c2ccc3c(c2)CCO3)cc1` (stereo not shown) [BIO-1360]: the IC50 is < 50 nM. In the case of `Cc1ccccc1NC(=O)Nc1ccc(CC(=O)NC(CSCCN(C)C)C(=O)NC(CC(=O)O)c2ccc3c(c2)OCO3)cc1` (stereo not shown) [BIO-1345], the half-inhibitory concentration (IC50) was < 50 nM.

With `CC(C)CC(NC(=O)Cc1ccc(Nc2nc3ccccc3o2)cc1)C(=O)NC(CC(=O)O)c1ccc2c(c1)OCO2` (stereo not shown) [BIO-1396], the IC50 lay in the range of 50 to 10000 nM. For the compound `C=CCC(CC(=O)O)NC(=O)C(CC(C)C)NC(=O)Cc1ccc(NC(=O)Nc2ccccc2C)cc1` (stereo not shown) [BIO-1515], the 50% inhibitory concentration (IC50) was < 50 nM.

`Cc1ccccc1NC(=O)Nc1ccc(CC(=O)NC(CC(C)C)C(=O)NC(CC(=O)O)CN2CCOCC2)cc1` (stereo not shown) [BIO-1721]: the half-maximal inhibitory concentration (IC50) lay within 50 to 10000 nM. The compound `O=C(O)CC(NC(=O)C(CSCc1ccccc1)NC(=O)Cc1ccc(NC(=O)Nc2ccccc2)cc1)c1ccccc1` (stereo not shown) [BIO-1136] came in with an IC50 of 50 to 10000 nM.

Consider `CSCCC(NC(=O)Cc1ccc(NC(=O)Nc2ncccc2C)cc1)C(=O)NC(CC(=O)O)c1ccc2c(c1)OCO2` (stereo not shown) [BIO-1429], for which the IC50 was 50 to 10000 nM.

`Cc1ccc(NC(=O)Nc2ccc(CC(=O)NC(CC(C)C)C(=O)NC(CC(=O)O)c3ccc4c(c3)OCO4)cc2)cc1` (stereo not shown) [BIO-1067] returned a half-maximal inhibitory concentration (IC50) of 50 to 10000 nM. Compound `CC(C)CC(NC(=O)Cc1ccc(NC(=O)c2cc3ccccc3[nH]2)cc1)C(=O)NCCC(=O)O` (stereo not shown) [BIO-1648] registered an IC50 of 50 to 10000 nM.

For `COc1ccc(C(CC(=O)O)NC(=O)C(CC(C)C)NC(=O)Cc2ccc(NC(=O)Nc3ccc(F)cc3)cc2)cc1OC` (stereo not shown) [BIO-1526], the IC50 lay in the range of 50 to 10000 nM. The same measure for `COC(=O)c1ccc(C(CC(=O)O)NC(=O)C(CCSC)NC(=O)Cc2ccc(NC(=O)Nc3ccccc3C)cc2)cc1` (stereo not shown) [BIO-1361]: < 50 nM.
